What all share (assay): NCI anticancer screen, dose series, 48 h
Experiment [1] deals with K-562 leukemia.
Experiment [2] relates to UO-31 renal.
Experiment [3] concerns ACHN renal.
The subject of experiment [4] is SF-539 CNS.
Experiment [5] relates to RPMI-8226 leukemia.
Experiment [6] concerns IGROV1 ovarian.
The test system of experiment [7] is EKVX NSCLC.
The subject of experiment [8] is SK-MEL-2 melanoma.
Experiment [9] relates to M14 melanoma.
For experiment [10], the system named is NCI-H226 lung.

The values below come from PubChem BioAssay (NCI).

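Step 1: Grow cells in 96-well plates. Step 2: Expose to compound for 48 hours at 5 concentrations. Step 3: Interpolate endpoints linearly; if unreached, use highest concentration. GI50 marks 50% less growth. TGI denotes the concentration required for complete inhibition of growth.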

In the case of `C/C(=N\NC(=S)N1CCN(c2ccccn2)CC1)c1nccs1`, the GI50 in experiment [1] is 0.00649 µM; in [5] it was 0.0145 µM; in experiment [6] it was 0.0817 µM; in experiment [7], 0.0334 µM. Moreover, the TGI was 6.33 µM in [1]; 14 µM in experiment [2]; 9.96 µM in experiment [3]; 4.37 µM in experiment [4]; 23.2 µM in experiment [5]; 20.2 µM in experiment [6]. The TGI in experiment [7] is 10.6 µM; in experiment [8], 9.9 µM; in [9], 1.49 µM; in [10] it was 6.66 µM.
`COc1ccc(N2C(=O)C3c4[nH]c5ccccc5c4C4CCCCCCC4C3C2=O)cc1` (stereo not given): the TGI in experiment [1] was > 75.2 µM; in experiment [2], 44.1 µM; in experiment [3] it was 18.7 µM; in experiment [4] it was 21.5 µM; in experiment [5], > 100 µM; in [6], 59.1 µM. Moreover, the TGI in experiment [7] was 41.4 µM; in experiment [8], > 69.8 µM; in experiment [9] it was 37.4 µM; in [10], 31.6 µM.
Consider `COC(=O)c1ccc2c(c1)C(=O)c1c-2n(CCCN)c(=O)c2cc(OC)c(OC)cc12`, for which the GI50 is 2.41 µM in experiment [1]; 21 µM in experiment [2]; 14.8 µM in experiment [3]; 17.7 µM in experiment [4]; 5.77 µM in experiment [5]; 13.6 µM in [6]. Moreover, the GI50 is 17.7 µM in experiment [7], 31.2 µM in experiment [8], 18.7 µM in experiment [9] and 16.7 µM in [10]. For the same compound, the TGI in [1] was 5.44 µM; in experiment [2], > 56.2 µM; in experiment [3], 29.8 µM; in experiment [4], 34.7 µM; in [5], 12.5 µM; in experiment [6], 29.2 µM. For the same compound, the TGI in [7] is 38.6 µM; in [8] it was > 84.5 µM; in [9], 34.4 µM; in experiment [10] it was 36.7 µM.
As to `CC(=O)c1cc(-c2ccccc2N)n(-c2ccc3c(c2)OCO3)c1C`, the GI50 in [1] is 0.247 µM; in experiment [2], 0.696 µM; in [3], 0.398 µM; in experiment [4], 0.181 µM; in experiment [5], 0.351 µM; in experiment [6], 0.529 µM. Besides, the GI50 was 0.392 µM in experiment [7], 0.31 µM in experiment [8], 0.279 µM in [9] and 0.239 µM in experiment [10]. Further, the TGI in experiment [1] was > 100 µM; in [2], 45.5 µM; in [3] it was > 100 µM; in [4] it was 0.487 µM; in [5], 19.3 µM; in [6] it was > 100 µM. Further, the results for the TGI in [7], in [9] and in experiment [10] were > 100 µM, 75 µM and 6.86 µM, respectively.
For the compound `CNCCNc1nc2ccccc2c2c(=O)c3cc(OC)ccc3sc12`, the GI50 in experiment [2] was 1.29 µM; in experiment [3], 1.58 µM; in [4], 1.66 µM; in experiment [5], 1.62 µM; in experiment [6] it was 1.55 µM; in [7] it was 1.69 µM. The GI50 in experiment [8] is 1.94 µM; in experiment [9] it was 1.73 µM; in experiment [10], 1.75 µM. For the same compound, the TGI in [2] was found to be 2.6 µM; in experiment [3], 2.93 µM; in experiment [4] it was 3.03 µM; in experiment [5], 3.41 µM; in experiment [6], 3.04 µM; in experiment [7], 3.16 µM. The TGI worked out at 3.83 µM in experiment [8], 3.23 µM in [9] and 3.61 µM in experiment [10].
Turning to `O=C(CSc1nc(-c2ccccc2)c(-c2ccccc2)[nH]1)NNC(=S)Nc1ccccc1`, the TGI in experiment [2], in experiment [3], in [4], in experiment [5], in experiment [6] and in experiment [7] was > 100 µM throughout. In addition, the TGI in [8], in [9] and in experiment [10] was > 100 µM each time.
Turning to `CN1C(=O)C2C=CC1C1CCC2N(C)C1=O` (stereo not given), the TGI in experiment [1], in [2], in [4], in experiment [5], in experiment [6] and in experiment [7] was > 100 µM each time. For the same compound, the TGI in experiment [8], in experiment [9] and in experiment [10] was > 100 µM in each case.
`COC(=O)c1cc(-c2ccc(OC)cc2)[nH]c1N/N=C/c1c(Cl)cccc1Cl`: the GI50 in [1] is 0.144 µM; in experiment [2] it was 0.287 µM; in experiment [3], 0.316 µM; in experiment [4], 0.172 µM; in experiment [5], 0.187 µM; in experiment [7] it was 0.224 µM. Moreover, the values for the GI50 in [8], in [9] and in experiment [10] were 0.377 µM, 0.196 µM and 0.574 µM, respectively. In addition, the TGI in [1] was 6.65 µM; in experiment [2], 2.55 µM; in experiment [3], 4.42 µM; in experiment [4] it was 0.553 µM; in [5] it was 0.575 µM; in experiment [7], 3.23 µM. Besides, the TGI was determined as 8.2 µM in experiment [8], 1.1 µM in experiment [9] and 28.1 µM in experiment [10].
`CC[C@H](Nc1nc(N)nc(C2CC2)c1C#N)c1nc2cccc(NCc3ccc(C(=O)NO)cc3)c2c(=O)n1-c1ccccc1`: the GI50 in experiment [1] was 2.81 µM; in [2], 1.26 µM; in experiment [3] it was 1.85 µM; in experiment [4], 1.72 µM; in experiment [5], 2.52 µM; in experiment [7], 1.75 µM. The GI50 in [8] was 2.44 µM; in experiment [9], 2.02 µM; in experiment [10], 1.47 µM. Further, the TGI in experiment [1] was > 100 µM; in experiment [2], 2.59 µM; in experiment [3], 4.58 µM; in experiment [4], 3.24 µM; in [5], 9.03 µM; in experiment [7] it was 3.73 µM. In addition, the values for the TGI in experiment [8], in experiment [9] and in experiment [10] were 6.75 µM, 4.66 µM and 4.18 µM, respectively.
